Values of other authors in US11434243B2, “Triazoloquinazolinone synthesis” (priority 2017, dated 2022).

Legend:
[1] = tested on: benzodiazepine site of the GABAA receptor complex
[2] = qualitative; complicates purification

Cc1ccc(-n2nc3c4cc(Cc5ccccc5)ccc4[nH]c(=O)n3c2=O)cc1 [Compound 12, 9-benzyl-2-(4-methylphenyl)-2,6-dihydro[1,2,4]triazolo[4,3-c]quinazoline-3,5-dione]
potency relative to diazepam in displacing 3H-Flumazenil ([1]; fold more potent than diazepam): 10 times | inhibition of the binding of 3H-Flumazenil to the benzodiazepine site of the GABAA receptor complex ([1]; rat membrane preparations, result in words): very potent inhibitor | selectivity for the GABAA receptor complex ([1]; result in words): selective for the GABAA receptor complex | solubility [2]: low solubility
